Patent US7202242B2, “Substituted 1 and 2-naphthol Mannich bases” (Gruenenthal GmbH, priority 1999, dated 2007)

Tested on: phenylquinone-induced writhing
Test: Analgesia test in the phenylquinone-induced writhing test in mice
Type: in vivo
Conditions: male NMRI mice; 10 mg/kg intravenous, 10 minutes before phenylquinone i.p.; writhing counted 5–20 minutes after phenylquinone
Protocol: The in-depth investigation for analgesic activity was carried out in the phenylquinone-induced writhing in mice (modified by I. C. Hendershot, J. Forsaith, J. Pharmacol. Exp. Ther. 125, 237–240 (1959)). Male NMRI mice weighing 25–30 g were used for this. Groups of 10 animals per substance dose received 0.3 ml/mouse of a 0.02% aqueous solution of phenylquinone (phenylbenzoquinone, Sigma, Deisenhofen; preparation of the solution with the addition of 5% ethanol and storage in a water bath at 45° C.) administered intraperitoneally 10 minutes after intravenous administration of the test substances. The animals were placed individually in observation cages. The number of pain-induced stretching movements (so-called writhing reactions=straightening of the body with stretching of the hind extremities) were counted by means of a push-button counter for 5–20 minutes after the administration of phenylquinone. Animals which received only physiological saline solution were also run as a control.
The substances were tested in the standard dose of 10 mg/kg. The inhibition of the writhing reactions by a substance was calculated according to the following equation: […]
The in-depth investigation for analgesic activity was carried out in the phenylquinone-induced writhing in mice as described above.

Row | Structure (SMILES) | Inhibition of the writhing reaction in % [%]
1 | COc1ccc(COc2c(C(c3ccccc3)N(C)C)ccc3ccccc23)cc1 (stereo not drawn) [Example 37, {[1-(4-Methoxy-benzyloxy)-naphthalen-2-yl]-phenylmethyl}-dimethylamine] | 40
2 | COc1ccc(COc2ccc3ccccc3c2C(c2ccccc2)N(C)C)cc1 (stereo not drawn) [Example 38, {[2-(4-Methoxybenzyloxy)-naphthalen-1-yl]-phenylmethyl}-dimethylamine] | 81
3 | COc1ccc(C(=O)Oc2ccc3ccccc3c2C(c2ccccc2)N(C)C)cc1 (stereo not drawn) [Example 39, 4-Methoxybenzoic acid 1-(dimethylaminophenylmethyl)-naphthalen-2-yl ester] | 21
4 | CN(C)C(c1ccccc1)c1c(OC(=O)c2ccccc2Cl)ccc2ccccc12 (stereo not drawn) [Example 40, 2-Chlorobenzoic acid 1-(dimethylaminophenylmethyl)-naphthalen-2-yl ester] | 48
5 | Oc1ccc2ccccc2c1C(c1ccccc1)N1CCOCC1 (stereo not drawn) [Example 41, 1-(Morpholin-4-yl-phenylmethyl]-naphthalen-2-ol] | 30
6 | Oc1ccc2ccccc2c1C(c1ccccc1)N1CCCCC1 (stereo not drawn) [Example 42, 1-(Phenylpiperidin-1-yl-methyl)-naphthalen-2-ol] | 92
